# Tests used:
# Assay in all cases: viability relative to DMSO control (fraction); higher = less drug effect (more viable cells)
# Details in all cases: 48 h
# [1] = test system: primary FL patient cells (S022)
# Summary of the method: (§1)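 In 384-well plates with compounds pre-plated at five concentrations (one well per concentration), primary mononuclear tumour cells were plated at 4 × 10^4 cells per well. The cells came from blood or bone marrow by Ficoll isolation or from processed lymph node, and were used fresh or cryopreserved. Culture ran for 48 h at 37 °C and 5% CO2 in RPMI-1640 containing penicillin/streptomycin, L-glutamine and human serum. Viability was read as CellTiter-Glo luminescence, normalised to the median of 16 inner DMSO wells.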
# [2] = test system: primary FL patient cells (S087)
# Summary of the method: as §1
# [3] = test system: primary AML patient cells (S056)
# Summary of the method: as §1
# [4] = test system: primary MCL patient cells (S063)
# Summary of the method: as §1
# [5] = test system: primary AML patient cells (S085)
# Summary of the method: as §1
# [6] = test system: primary CLL patient cells (S031)
# Summary of the method: as §1
# [7] = test system: primary MCL patient cells (S041)
# Summary of the method: as §1
# [8] = test system: primary AML patient cells (S079)
# Summary of the method: as §1
# [9] = test system: primary ALL patient cells (S088)
# Summary of the method: as §1
# [10] = test system: primary AML patient cells (S006)
# Summary of the method: as §1
# [11] = test system: primary ALL patient cells (S048)
# Summary of the method: as §1
# [12] = test system: primary AML patient cells (S011)
# Summary of the method: as §1
# [13] = test system: primary AML patient cells (S019)
# Summary of the method: as §1
# [14] = test system: primary AML patient cells (S012)
# Summary of the method: as §1
structure (smiles),measurement,setting,value
COc1cccc2c1C(=O)c1c(O)c3c(c(O)c1C2=O)C[C@@](O)(C(C)=O)C[C@@H]3O[C@H]1C[C@H](N)[C@H](O)[C@H](C)O1 [Daunorubicin],viability,[1]; 0.0016 µM,0.966
same,viability,[1]; 0.008 µM,0.964
same,viability,[1]; 0.04 µM,0.803
same,viability,[1]; 0.2 µM,0.331
same,viability,[1]; 1 µM,0.304
same,viability,[2]; 0.0016 µM,1.13
same,viability,[2]; 0.008 µM,1.03
same,viability,[2]; 0.04 µM,0.856
same,viability,[2]; 0.2 µM,0.693
same,viability,[2]; 1 µM,0.588
same,viability,[3]; 0.0016 µM,0.96
same,viability,[3]; 0.008 µM,0.881
same,viability,[3]; 0.04 µM,0.258
same,viability,[3]; 0.2 µM,0.146
same,viability,[3]; 1 µM,0.0683
same,viability,[4]; 0.0016 µM,1.2
same,viability,[4]; 0.008 µM,1.14
same,viability,[4]; 0.04 µM,0.979
same,viability,[4]; 0.2 µM,0.528
same,viability,[4]; 1 µM,0.0178
same,viability,[5]; 0.0016 µM,1.27
same,viability,[5]; 0.008 µM,0.865
same,viability,[5]; 0.04 µM,0.312
same,viability,[5]; 0.2 µM,0.164
same,viability,[5]; 1 µM,0.0173
same,viability,[6]; 0.0016 µM,0.982
same,viability,[6]; 0.008 µM,0.809
same,viability,[6]; 0.04 µM,0.265
same,viability,[6]; 0.2 µM,0.0431
same,viability,[6]; 1 µM,0.0162
same,viability,[7]; 0.0016 µM,1.16
same,viability,[7]; 0.008 µM,1.11
same,viability,[7]; 0.04 µM,0.931
same,viability,[7]; 0.2 µM,0.323
same,viability,[7]; 1 µM,0.0341
same,viability,[8]; 0.0016 µM,1.03
same,viability,[8]; 0.008 µM,1.08
same,viability,[8]; 0.04 µM,0.78
same,viability,[8]; 0.2 µM,0.659
same,viability,[8]; 1 µM,0.0276
same,viability,[9]; 0.0016 µM,1.13
same,viability,[9]; 0.008 µM,0.849
same,viability,[9]; 0.04 µM,0.235
same,viability,[9]; 0.2 µM,0.0841
same,viability,[9]; 1 µM,0.0273
same,viability,[10]; 0.0016 µM,1.19
same,viability,[10]; 0.008 µM,0.923
same,viability,[10]; 0.04 µM,0.248
same,viability,[10]; 0.2 µM,0.075
same,viability,[10]; 1 µM,0.0282
same,viability,[11]; 0.0016 µM,1.02
same,viability,[11]; 0.008 µM,0.731
same,viability,[11]; 0.04 µM,0.12
same,viability,[11]; 0.2 µM,0.0694
same,viability,[11]; 1 µM,0.0144
same,viability,[12]; 0.0016 µM,1.02
same,viability,[12]; 0.008 µM,1.07
same,viability,[12]; 0.04 µM,0.409
same,viability,[12]; 0.2 µM,0.0898
same,viability,[12]; 1 µM,0.0206
same,viability,[13]; 0.0016 µM,1.38
same,viability,[13]; 0.008 µM,1.33
same,viability,[13]; 0.04 µM,0.56
same,viability,[13]; 0.2 µM,0.395
same,viability,[13]; 1 µM,0.102
same,viability,[14]; 0.0016 µM,1
same,viability,[14]; 0.008 µM,1.01
same,viability,[14]; 0.04 µM,0.968
same,viability,[14]; 0.2 µM,0.922
same,viability,[14]; 1 µM,0.083

# Reference: the supplement of paper PMC10733146
